In test [1] the test system is WHHL rabbits. Kind of test: Ac-hE18A-NH2 in WHHL rabbits: plasma PON, lipid hydroperoxides, cholesterol, endothelial function. It is filed as in vivo, rabbit. The following applies: plasma of WHHL rabbits; p<0.05; FIG. 1. An excerpt:
These rabbits have defective LDL receptors and therefore have increased atherogenic lipoproteins (mainly LDL). […] This was associated with improved aortic endothelial function. This improvement in endothelial function was mediated in part by increase in PON activity with associated decrease in plasma lipid hydroperoxide (FIG. 1). […] PON is an anti-oxidant enzyme associated with HDL and is responsible for scavenging LOOH in plasma. The lipid lowering effects of Ac-hE18A-NH2 in 1% cholesterol fed NZW-rabbits have also been shown. These animals have elevated cholesterol that are rich in VLDL type of particles.

The subject of test [2] is 1% cholesterol fed NZW-rabbits. Kind of test: Plasma cholesterol in high fat (1% cholesterol) diet rabbits. It is filed as in vivo, rabbit. The conditions noted are these: intravenously two times; end of 14 days (21 days after initiation of atherogenic diet); n=4; control about 2000 mg/dl.
The test system of test [3] is 1% cholesterol fed NZW-rabbits. Kind of test: Plasma turbidity and aortic atherosclerosis (en face Oil Red O) in 1% cholesterol fed NZW rabbits. It is filed as in vivo, rabbit. The protocol: In another set of experiments it was noted that Ac-hE18A-NH2 clears the plasma turbidity in 1% cholesterol fed NZW-rabbits. 3 mg/kg of peptide was administered intravenously/week. The rabbits were sacrificed after 51 days from the start of diet. Aortas were harvested and en face analysis was done on Oil Red O stained tissue samples. […] This was associated with decrease in atherogenic lipoproteins and inhibition of atherosclerosis at day 51.

In test [4] the test system is ZDF (fa/fa) rats. Kind of test: Onset and progression of DM-2 in male ZDF (fa/fa) rats: fasting plasma glucose, insulin, adiponectin. It is filed as in vivo, rat. The protocol: This example outlies studies carried out for the evaluation of the effects of these peptides in the prevention of onset and progression of DM-2. […] Baseline fasting plasma was collected prior to peptide administration. Biweekly injections (6 for Ac-hE18A-NH2 group and 5 for L-4F group were administered before day 18). From day 18-day 33, no additional peptide/vehicle injection were performed. […] (B) Corresponding insulin levels are depicted in the control and Ac-hE18A-NH2 group only. Control animals become relatively insulin resistant at day 18 as depicted by hyperinsulinemia and hyperglycemia. […] Data are expressed as Mean±SEM; *p<0.05.
Relatively infrequent injections (biweekly) of the peptides as compared to vehicle were able to improve glucose homeostasis in the ZDF rats. Form the studies it was determined that adiponectin levels in the peptide treated animals were much higher than in controls at day 33 (5.7±1 vs. […], p<0.05). […] Adiponectin also prevents the production and action of pro-inflammatory TNF-α and IL-6 and induces anti-inflammatory cytokine IL-10 and IL-1 receptor antagonist. A summary of the potential effects of the peptides on liver, pancreas, peripheral tissue, blood and blood vessel are depicted in FIG. 5.

The test system of test [5] is WHHL rabbits. The conditions noted are these: single administration; cited from earlier work.
Setting [6] is: 1% cholesterol fed NZW rabbits, 3 mg/kg i.v./week, day 51.
The mark [7] stands for this setting: 5 mg/kg i.v. biweekly, day 18, versus control.
The mark [8] stands for this setting: day 33, no additional peptide after day 18.

On to “Ac-LRKLRKRLLRDWLKAFYDKVAEKLKEAF-NH2 [Ac-hE18A-NH2]”, for which, in test [1], the “HDL associated Paraoxonase (PON) activity” value was “increase” and the “lipid hydroperoxides (LOOH)” value is given as “decrease”. Further, in test [2], the plasma cholesterol levels is about 1000 mg/dL. In test [3] (setting [6]), the atherogenic lipoproteins result is “decrease” and the “atherosclerosis (en face analysis of Oil Red O stained aortas)” value is “inhibits”. In addition, in test [3] (1% cholesterol fed NZW-rabbits, 3 mg/kg intravenously/week), the plasma turbidity result is on record as “clears”. In addition, the fasting plasma glucose entry in test [4] (5 mg/kg i.v. biweekly until day 18, day 18 and day 33, versus control) is “only mild increase”. Moreover, the plasma glucose levels entry in test [4] (5 mg/kg i.v. biweekly, day 18) was “normal”. Also, in test [4] (setting [7]), the insulin resistance entry is “much less” and the plasma insulin levels entry is given as “lower”. Besides, in test [4] (day 18 to day 33, no additional peptide), the beta cell function entry is given as “relatively preserved”. Further, in test [4] (setting [8]), the plasma glucose result is recorded as “milder increase” and the plasma insulin result is “increase”. In addition, in test [5], the LDL cholesterol entry is given as “dramatic decrease”, the aortic endothelial function result is “improved” and the total cholesterol entry was “dramatic decrease”.

The record behind these values is patent US9422363B2, “Synthetic apolipoprotein E mimicking polypeptides and methods of use” (UAB RESEARCH FOUNDATION, priority 2007, dated 2016).
